The values below come from US20020123056A1 (priority 2000, published 2002).

Test [1] deals with SGK2. Type of test: biochemical, human.
For test [2], the target named is T1, SGK2 (Homo sapiens, UniProt Q9HBY8).
T1 sequence (Q9HBY8 whole entry, looked up): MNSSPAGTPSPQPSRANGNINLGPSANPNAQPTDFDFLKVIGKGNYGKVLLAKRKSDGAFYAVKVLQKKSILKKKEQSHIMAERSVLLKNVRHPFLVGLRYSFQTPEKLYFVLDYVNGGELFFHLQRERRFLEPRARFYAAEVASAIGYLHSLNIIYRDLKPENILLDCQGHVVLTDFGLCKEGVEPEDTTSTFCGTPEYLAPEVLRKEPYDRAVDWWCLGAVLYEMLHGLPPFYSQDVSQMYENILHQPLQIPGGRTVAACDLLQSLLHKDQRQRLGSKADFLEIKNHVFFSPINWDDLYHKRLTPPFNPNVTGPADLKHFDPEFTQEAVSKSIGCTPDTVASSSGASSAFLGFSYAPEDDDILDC
The test is classed as biochemical.

For `COC[C@@H]([C@H](O)[C@H](O)C(=O)NCC[C@H](C)c1nc(/C=C/C[C@@H]2O[C@]3(C[C@@H](O)[C@@H]2C)O[C@H]([C@H](C[C@H](O)[C@H](C)[C@H](O)[C@H](C)/C=C(C)/C(C)=C/C=C/C(C)=C\C#N)OC)[C@H](OP(=O)(O)O)C3(C)C)co1)N(C)C` [Calyculin A], in test [1], the “effect on SGK2 kinase activity” value is “stimulated SGK2 kinase activity”.

Turning to `C=C1[C@@H](O)[C@@H]2O[C@]3(CC[C@H](/C=C/[C@@H](C)[C@@H]4CC(C)=C[C@@]5(O[C@H](C[C@@](C)(O)C(=O)O)CC[C@H]5O)O4)O3)CC[C@H]2O[C@@H]1[C@@H](O)C[C@H](C)[C@H]1O[C@@]2(CCCCO2)CC[C@H]1C` [Okadaic Acid], in test [1], the “effect on SGK2 kinase activity” value is listed as “stimulated SGK2 kinase activity”.

For CKRPRAASFAE [PKB-sub], the “incorporation of 32P into peptide substrate” value in test [2] was “significant incorporation”.

As for “KTFCGTPEYLAPEVRREPRILSEEEQEMFRDFDYI [PDK1 peptide]”, the “incorporation of 32P into peptide substrate” value in test [2] is recorded as “no significant incorporation”.
